# Strand notation (5' to 3'): a small letter for the sugar, then the base; units joined by * are phosphorothioate-linked, units joined directly phosphodiester-linked; [ ] holds rarer units or linkages, { } end groups; capitals alone tell only the bases. k = constrained ethyl (cEt); [5mC] = 5-methylcytosine; d = 2'-deoxy (DNA)
# Tested on: Yap1 mRNA
# Assay: Antisense inhibition of human Yap1 in A-431 cells by cEt gapmers, single dose (Example 2, RTS4814)
# Type: cell-based
# Details: A-431 cells, 5,000 cells per well, free uptake, 2,000 nM modified oligonucleotide, approx. 48 hours, RTS4814, normalized to RIBOGREEN; Table 4; asterisk (*) = targets amplicon region of primer probe set
# How it was run: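 Read-out is Yap1 mRNA as percent of untreated cells, by real-time RT-PCR (probe set RTS4814) normalized to total RNA via RIBOGREEN. Cells were A-431 dosed with 2,000 nM gapmer without transfection for approximately 48 hours.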
row,Substance,YAP1 (% UTC)
1,716568 (kG*kA*kT*dT*dT*dT*dT*dT*d[5mC]*dT*dG*dA*dG*kT*kT*k[5mC]; antisense) [Compound 716568],72
2,716487 (kA*k[5mC]*kA*d[5mC]*dA*dT*dA*d[5mC]*dT*d[5mC]*dT*dA*dG*kT*kT*kA; antisense) [Compound 716487],64
3,716460 (kT*kA*kT*dT*d[5mC]*dT*dA*dA*dA*dT*dG*d[5mC]*dA*kT*kA*k[5mC]; antisense) [Compound 716460],86
4,716559 (k[5mC]*k[5mC]*kT*dA*dA*d[5mC]*dA*dT*dA*dT*dG*dA*dG*k[5mC]*kA*kT; antisense) [Compound 716559],62
5,716379 (k[5mC]*k[5mC]*kA*dG*dA*dA*dG*dA*dT*dG*dT*d[5mC]*dT*kT*kT*kG; antisense) [Compound 716379],123
6,716526 (antisense kT*k[5mC]*kA*dA*dA*dG*d[5mC]*dA*d[5mC]*dT*dG*dT*dG*k[5mC]*k[5mC]*kA) [Compound 716526],88

# Same assay, conditions: Table 5; A-431 cells, 5,000 cells per well, free uptake, 2,000 nM modified oligonucleotide, approx. 48 hours; RTS4814; normalized to RIBOGREEN; Yap1 mRNA relative to untreated control cells
row,Substance,YAP1 (% UTC)
1,716353 (kG*k[5mC]*kA*dT*d[5mC]*d[5mC]*d[5mC]*d[5mC]*d[5mC]*dG*d[5mC]*d[5mC]*d[5mC]*k[5mC]*kG*kG; antisense) [Compound 716353],98
2,716446 (kG*k[5mC]*kA*d[5mC]*dA*d[5mC]*d[5mC]*d[5mC]*dA*d[5mC]*dA*dA*dA*kA*kT*kT; antisense) [Compound 716446],83

# Same assay, conditions: Table 6; A-431 cells, 5,000 cells per well, free uptake, 2,000 nM modified oligonucleotide, approx. 48 hours; RTS4814; normalized to RIBOGREEN; Yap1 mRNA relative to untreated control cells
row,Substance,YAP1 (% UTC)
1,716354 (kT*k[5mC]*kG*d[5mC]*dT*d[5mC]*dT*d[5mC]*dA*dG*dG*dG*d[5mC]*k[5mC]*kG*kG; antisense) [Compound 716354],114
2,716540 (antisense kG*kA*kA*dA*dA*dG*dT*dT*dA*dT*dT*dA*d[5mC]*kA*kA*k[5mC]) [Compound 716540],120
3,716564 (k[5mC]*kT*kT*dT*dT*dG*dG*dG*d[5mC]*dA*dA*dA*dG*kT*kT*k[5mC]; antisense) [Compound 716564],103

# Same assay, conditions: Table 19; A-431 cells, 5,000 cells per well, free uptake, 2,000 nM modified oligonucleotide, approx. 48 hours; RTS4814; normalized to RIBOGREEN; Yap1 mRNA as percent of untreated control
row,Substance,YAP1 (% UTC)
1,1075493 (antisense kA*kG*kA*d[5mC]*dA*dA*dG*dG*dG*dA*dT*dG*d[5mC]*kT*kA*kA) [Compound 1075493],67
2,1074213 (antisense kG*kA*kG*dT*d[5mC]*dG*dG*dG*d[5mC]*dA*dG*d[5mC]*dT*kT*k[5mC]*k[5mC]) [Compound 1074213],55
3,1075845 (kG*kT*kG*dG*dA*dA*dA*dA*dG*dT*dA*dT*dG*kA*kT*k[5mC]; antisense) [Compound 1075845],19
4,1075205 (antisense kA*kT*kT*dA*dA*dA*dT*dG*dA*dG*d[5mC]*dA*d[5mC]*k[5mC]*kA*k[5mC]) [Compound 1075205],29
5,1075685 (k[5mC]*kA*kT*dA*dA*dT*d[5mC]*dA*dA*dA*dG*dG*dG*kT*kG*k[5mC]; antisense) [Compound 1075685],60

# Same assay, conditions: Table 20; Yap1 mRNA, percent of untreated control; 3-10-3 cEt gapmers targeting SEQ ID NO.: 1 and 2
row,Substance,YAP1 (% UTC)
1,1075814 (kT*kA*kT*dA*dA*dA*dG*d[5mC]*dA*dG*dG*dG*d[5mC]*kA*kT*kT; antisense) [Compound 1075814],47
2,1076550 (antisense kT*kA*k[5mC]*d[5mC]*dA*dA*d[5mC]*d[5mC]*dT*dG*dT*dA*dT*k[5mC]*k[5mC]*kA) [Compound 1076550],61

# Same assay, conditions: Table 21; Yap1 mRNA, percent of untreated control; 3-10-3 cEt gapmers targeting SEQ ID NO.: 1 and 2
row,Substance,YAP1 (% UTC)
1,1075783 (k[5mC]*kT*kT*dA*dA*dT*dT*dT*dA*d[5mC]*d[5mC]*dT*dG*kA*kA*k[5mC]; antisense) [Compound 1075783],36
2,1075495 (antisense k[5mC]*kT*kT*dA*dA*dT*dT*dG*dG*dT*dA*dA*d[5mC]*kT*kG*kA) [Compound 1075495],19

# Same assay, conditions: Table 22; Yap1 mRNA as percent of untreated control; 3-10-3 cEt gapmers; single dose
row,Substance,YAP1 (% UTC)
1,1074792 (kA*kT*k[5mC]*dA*dA*dT*dG*dT*dG*d[5mC]*dT*d[5mC]*d[5mC]*kA*kT*k[5mC]; antisense) [Compound 1074792],4

# Same assay, conditions: Table 23; Yap1 mRNA as percent of untreated control; 3-10-3 cEt gapmers; single dose
row,Substance,YAP1 (% UTC)
1,1074249 (antisense kT*kG*kA*dT*d[5mC]*dG*dA*dT*dG*dT*dG*dA*dT*kT*kT*kA) [Compound 1074249],23
2,1074185 (antisense kG*kG*k[5mC]*d[5mC]*dG*dG*dT*dT*dG*dA*dG*dG*d[5mC]*kG*kG*k[5mC]) [Compound 1074185],91
3,1075849 (k[5mC]*kT*kA*dG*dA*dA*d[5mC]*dA*d[5mC]*dG*d[5mC]*dT*dG*kA*kT*kG; antisense) [Compound 1075849],55
4,1075049 (antisense kG*kA*kA*dA*dT*dA*dT*dT*dG*dG*dT*dA*dA*kG*kT*k[5mC]) [Compound 1075049],10

# Same assay, conditions: Table 24; Yap1 mRNA as percent of untreated control; 3-10-3 cEt gapmers targeting SEQ ID NO.: 1, and 2
row,Substance,YAP1 (% UTC)
1,1076394 (k[5mC]*k[5mC]*kT*dA*dA*dA*dT*dT*dA*dG*dA*d[5mC]*dT*kT*kG*kA; antisense) [Compound 1076394],20
2,1075370 (k[5mC]*kT*kT*dA*d[5mC]*dG*dA*dA*dT*d[5mC]*dA*d[5mC]*dA*kT*kA*kT; antisense) [Compound 1075370],32
3,1075946 (kG*k[5mC]*kT*dG*dA*dA*dT*dA*dA*dG*dT*dA*dA*k[5mC]*kT*kT; antisense) [Compound 1075946],20
4,1076458 (antisense k[5mC]*kT*kT*dA*dA*dT*dT*dA*dG*d[5mC]*d[5mC]*dT*d[5mC]*kA*kG*kT) [Compound 1076458],6
5,1076298 (kG*kT*kT*dA*dT*dA*dA*dA*dG*dA*d[5mC]*d[5mC]*d[5mC]*kA*kA*kT; antisense) [Compound 1076298],10

# Same assay, conditions: Table 25; Yap1 mRNA as percent of untreated control; 3-10-3 cEt gapmers targeting SEQ ID NO.: 1, and 2
row,Substance,YAP1 (% UTC)
1,1075563 (k[5mC]*k[5mC]*kA*dT*dA*dT*dA*dA*d[5mC]*d[5mC]*dA*dG*dT*kT*kT*kT; antisense) [Compound 1075563],12
2,1075883 (kA*k[5mC]*kT*dA*dA*dA*dA*d[5mC]*d[5mC]*dA*dT*dT*dT*kG*k[5mC]*k[5mC]; antisense) [Compound 1075883],20
3,1074827 (kT*kA*kA*dA*dA*dT*d[5mC]*d[5mC]*dA*d[5mC]*d[5mC]*dT*dG*kA*kG*k[5mC]; antisense) [Compound 1074827],39
4,1075371 (k[5mC]*kT*kG*d[5mC]*dA*dA*dA*dA*dG*dT*dT*d[5mC]*dT*kT*kA*k[5mC]; antisense) [Compound 1075371],90
5,1076363 (k[5mC]*kA*kT*dA*dA*dA*dA*dG*dT*d[5mC]*d[5mC]*dA*d[5mC]*kT*kA*kA; antisense) [Compound 1076363],72

# Same assay, conditions: Table 32; Yap1 mRNA, percent of untreated control; 3-10-3 cEt gapmers targeting SEQ ID NO.: 1, and 2
row,Substance,YAP1 (% UTC)
1,1075474 (kT*kT*kT*dA*dA*dT*dA*dG*dG*d[5mC]*dT*d[5mC]*dT*kA*kT*k[5mC]; antisense) [compound 1075474],68
2,1075026 (antisense k[5mC]*kT*kT*dA*dA*dA*dA*dG*d[5mC]*d[5mC]*dA*dT*d[5mC]*kT*kA*k[5mC]) [compound 1075026],55
3,1074322 (antisense kA*kG*kG*dG*d[5mC]*dT*dA*dA*d[5mC]*dT*d[5mC]*d[5mC]*dT*kG*kA*k[5mC]) [compound 1074322],94
4,1075762 (kG*kA*kT*dA*dA*dA*dT*dG*dG*dG*dT*dT*dG*kA*kT*kT; antisense) [compound 1075762],20
5,1074194 (antisense k[5mC]*k[5mC]*kG*dG*dG*dT*d[5mC]*d[5mC]*dG*dG*dA*d[5mC]*dG*kG*k[5mC]*kG) [compound 1074194],57

# Same assay, conditions: Table 33; Yap1 mRNA, percent of untreated control; 3-10-3 cEt gapmers targeting SEQ ID NO.: 1, and 2
row,Substance,YAP1 (% UTC)
1,1076307 (kG*kT*kA*dA*dT*dT*dA*d[5mC]*d[5mC]*dT*d[5mC]*dT*dA*kA*kT*k[5mC]; antisense) [compound 1076307],38
2,1074323 (antisense k[5mC]*kA*kG*dG*dG*d[5mC]*dT*dA*dA*d[5mC]*dT*d[5mC]*d[5mC]*kT*kG*kA) [compound 1074323],116
3,1075315 (antisense k[5mC]*kA*kT*dA*dA*d[5mC]*dT*dT*dG*dA*dT*dG*dA*k[5mC]*kT*k[5mC]) [compound 1075315],27

# Same assay, conditions: Yap1 mRNA as percent of untreated control; A-431 cells; 3-10-3 cEt gapmers targeting SEQ ID NO.: 1, and 2; Table 30
row,Substance,YAP1 (% UTC)
1,1076336 (antisense k[5mC]*kA*kT*dT*dA*d[5mC]*d[5mC]*dA*d[5mC]*d[5mC]*dT*dA*dT*kA*kA*kG) [compound 1076336],31
2,1074160 (kG*k[5mC]*kG*dA*dG*d[5mC]*dG*dA*dG*dG*dG*d[5mC]*dT*kA*k[5mC]*kG; antisense) [compound 1074160],86
3,1075280 (antisense kG*kA*kA*d[5mC]*dT*dA*dT*dA*d[5mC]*dT*dA*dA*d[5mC]*kA*kT*kT) [compound 1075280],57

# Source: patent US11214803B2, “Modulators of YAP1 expression” (Ionis Pharmaceuticals, Inc., priority 2019, dated 2022)
